The values that follow are results of earlier work, collected in US20200261422A1, “METHODS FOR […] […] HUMAN PATIENTS USING I[…]-2 […]” (Massachusetts Institute of Technology, priority 2019, published 2020).

The conditions of series [1]: in vivo.
For series [2], the system named is effects of dexmedetomidine (α2 adrenergic receptor agonist). The conditions noted are these: intramuscular injection; dexmedetomidine e.g. DEXDOMITOR and DEXDOMITOR 0.1.

Turning to `Cc1cccc([C@H](C)c2cnc[nH]2)c1C` [dexmedetomidine, Dexmedetomidine], in series [1], the terminal elimination half-life entry is listed as “about 2 hours”. `CCC1(c2cnc[nH]2)Cc2ccccc2C1` [atipamezole, 4-(2-ethyl-2,3-dihydro-1H-inden-2-yl)-1H-imidazole]: the “time to reverse the effects of dexmedetomidine” value in series [2] is 5 to 10 min.
